Measured values as given in patent US8921362B2, “6,7-dialkoxy quinazoline derivatives and methods of treating drug resistant and other tumors” (Natco Pharma Limited, priority 2008, dated 2014).

Experiments:
Assay in all cases: KinomeScan
Assay type in all cases: binding
Conditions in all cases: read-out: % Ctrl @ 10000 nM
[1] = molecular target: T1, RIOK2 (Homo sapiens, UniProt Q9BVS4)
T1 construct: host or cells: E. coli host derived from BL21, T7 phage display
Protocol: (§1) Kinase assays: Assays were performed as described in Fabian et al. (2005) Nature Biotechnology, vol. 23, p. 329. Kinase-tagged T7 phage strains were grown in parallel in 24 or 96-well blocks in an E. coli host derived from the BL21 strain. E. coli were grown to log-phase and infected with T7 phage from a frozen stock (multiplicity of infection ˜0.1) and incubated with shaking at 32° C. until lysis (−90 minutes). The lysates were centrifuged and filtered to remove cell debris. […] The liganded beads were blocked with excess biotin and washed with blocking buffer (SeaBlock (Pierce), 1% BSA, 0.05% Tween 20, 1 mM DTT) to remove unbound ligand and to reduce non-specific phage binding.
(§2) Test compounds were prepared as 40× stocks in DMSO and diluted into the aqueous environment. 2.5% DMSO was added to control assays lacking a test compound. All reactions were performed in polystyrene 96-well plates that had been pretreated with blocking buffer in a final volume of 0.04 ml. […] The phage titer in the eluates was measured by quantitative PCR.

[2] = molecular target: T2, NEK9 (Homo sapiens, UniProt Q8TD19)
T2 construct: host or cells: T7 phage grown in E. coli host derived from BL21
Protocol: as §1, §2

[3] = molecular target: T3, DYRK1B (Homo sapiens, UniProt Q9Y463)
T3 construct: purchased Ambit Biosciences Corp (KinomeScan); host or cells: T7 phage in E. coli host derived from BL21
Protocol: as §1, §2

[4] = molecular target: T4, TESK1 (Homo sapiens, UniProt Q15569)
T4 construct: host or cells: T7 phage grown in E. coli (BL21-derived)
Protocol: as §1, §2

[5] = molecular target: T5, CDK5 (Homo sapiens, UniProt Q00535)
T5 construct: host or cells: T7 phage in E. coli host derived from BL21
Protocol: as §1, §2

[6] = molecular target: T6, RPS6KA4(Kin.Dom.-2-C-terminal) (Homo sapiens, UniProt O75676)
T6 construct: RPS6KA4(KIN.DOM.2); host or cells: E. coli host derived from BL21, T7 phage display
Protocol: as §1, §2

[7] = molecular target: T7, RPS6KA4(Kin.Dom.-1-N-terminal) (Homo sapiens, UniProt O75676)
T7 construct: RPS6KA4(Kin.Dom.-1-N-terminal); host or cells: E. coli host derived from BL21, T7 phage display
Protocol: as §1, §2

[8] = molecular target: T8, GCN2(Kin.Dom.2.S808G) (Homo sapiens, UniProt Q9P2K8, S808G)
T8 construct: GCN2(KIN.DOM.2, S808G); host or cells: T7 phage in E. coli host derived from BL21
Protocol: as §1, §2

[9] = molecular target: T9, MYO3A (Homo sapiens, UniProt Q8NEV4)
T9 construct: host or cells: T7 phage grown in E. coli host derived from BL21
Protocol: as §1, §2

[10] = molecular target: T10, EPHA3 (Homo sapiens, UniProt P29320)
T10 construct: purchased Ambit Biosciences Corp; host or cells: T7 phage in E. coli host derived from BL21
Protocol: as §1, §2

[11] = molecular target: T11, YANK2 (Homo sapiens, UniProt Q9NY57)
T11 construct: host or cells: E. coli host derived from BL21, T7 phage
Protocol: as §1, §2

[12] = molecular target: T12, DAPK1 (Homo sapiens, UniProt P53355)
T12 construct: purchased Ambit Biosciences Corp (KinomeScan); host or cells: T7 phage in E. coli host derived from BL21
Protocol: as §1, §2

[13] = molecular target: T13, NEK5 (Homo sapiens, UniProt Q6P3R8)
T13 construct: host or cells: T7 phage grown in E. coli host derived from BL21
Protocol: as §1, §2

[14] = molecular target: T14, MLK1 (Homo sapiens, UniProt P80192)
T14 construct: host or cells: T7 phage grown in E. coli host derived from BL21
Protocol: as §1, §2

[15] = molecular target: T15, RPS6KA2(Kin.Dom.-2-C-terminal) (Homo sapiens, UniProt Q15349)
T15 construct: RPS6KA2(Kin.Dom.-2-C-terminal); host or cells: E. coli host derived from BL21, T7 phage display
Protocol: as §1, §2

[16] = molecular target: T16, PRKCQ (Homo sapiens, UniProt Q04759)
T16 construct: host or cells: T7 phage in E. coli host derived from BL21
Protocol: as §1, §2

[17] = molecular target: T17, MAP3K3 (Homo sapiens, UniProt Q99759)
T17 construct: host or cells: E. coli host derived from the BL21 strain, infected with T7 phage
Protocol: as §1, §2

[18] = molecular target: T18, HCK (Homo sapiens, UniProt P08631)
T18 construct: host or cells: T7 phage in E. coli host derived from BL21
Protocol: as §1, §2

[19] = molecular target: T19, EPHA5 (Homo sapiens, UniProt P54756)
T19 construct: purchased Ambit Biosciences Corp; host or cells: T7 phage in E. coli host derived from BL21
Protocol: as §1, §2

[20] = molecular target: T20, MELK (Homo sapiens, UniProt Q14680)
T20 construct: host or cells: E. coli host derived from the BL21 strain, infected with T7 phage
Protocol: as §1, §2

[21] = molecular target: T21, LATS2 (Homo sapiens, UniProt Q9NRM7)
T21 construct: host or cells: T7 phage grown in E. coli host derived from BL21
Protocol: as §1, §2

[22] = molecular target: T22, TRKC (Homo sapiens, UniProt Q16288)
T22 construct: host or cells: E. coli host derived from BL21, T7 phage
Protocol: as §1, §2

[23] = molecular target: T23, ABL1(M351T) (Homo sapiens, UniProt P00519, M351T)
T23 construct: host or cells: E. coli (BL21-derived), T7 phage lysate
Protocol: as §1, §2

[24] = molecular target: T24, PAK1 (Homo sapiens, UniProt Q13153)
T24 construct: host or cells: E. coli host derived from BL21, infected with T7 phage
Protocol: as §1, §2

[25] = molecular target: T25, FRK (Homo sapiens, UniProt P42685)
T25 construct: host or cells: T7 phage in E. coli host derived from BL21
Protocol: as §1, §2

[26] = molecular target: T26, CLK4 (Homo sapiens, UniProt Q9HAZ1)
T26 construct: host or cells: T7 phage in E. coli host derived from BL21
Protocol: as §1, §2

[27] = molecular target: T27, RPS6KA1(Kin.Dom.-2-C-terminal) (Homo sapiens, UniProt Q15418)
T27 construct: RPS6KA1(Kin.Dom.-2-C-terminal); host or cells: E. coli host derived from BL21, T7 phage display
Protocol: as §1, §2

[28] = molecular target: T28, RAF1 (Homo sapiens, UniProt P04049)
T28 construct: host or cells: E. coli host derived from BL21, T7 phage display
Protocol: as §1, §2

[29] = molecular target: T29, EPHA6 (Homo sapiens, UniProt Q9UF33)
T29 construct: purchased Ambit Biosciences Corp; host or cells: T7 phage in E. coli host derived from BL21
Protocol: as §1, §2

[30] = molecular target: T30, PIK3C2B (Homo sapiens, UniProt O00750)
T30 construct: host or cells: E. coli host derived from BL21, infected with T7 phage
Protocol: as §1, §2

T27 sequence (Q15418 418-675 limits assumed): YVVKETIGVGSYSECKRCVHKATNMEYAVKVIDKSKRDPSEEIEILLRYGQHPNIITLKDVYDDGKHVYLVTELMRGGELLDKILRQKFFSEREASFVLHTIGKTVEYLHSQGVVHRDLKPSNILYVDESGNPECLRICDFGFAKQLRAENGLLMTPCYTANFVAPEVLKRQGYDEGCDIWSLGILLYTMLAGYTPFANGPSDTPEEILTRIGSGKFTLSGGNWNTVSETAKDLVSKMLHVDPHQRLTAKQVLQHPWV
T5 sequence (Q00535 whole entry): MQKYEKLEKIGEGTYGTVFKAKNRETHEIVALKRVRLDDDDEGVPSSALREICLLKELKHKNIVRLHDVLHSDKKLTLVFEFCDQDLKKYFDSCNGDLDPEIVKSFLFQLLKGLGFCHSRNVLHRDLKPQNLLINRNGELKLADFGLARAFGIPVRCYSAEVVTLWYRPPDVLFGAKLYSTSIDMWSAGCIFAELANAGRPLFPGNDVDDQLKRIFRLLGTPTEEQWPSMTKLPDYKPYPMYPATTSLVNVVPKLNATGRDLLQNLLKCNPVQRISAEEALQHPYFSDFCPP
T4 sequence (Q15569 whole entry): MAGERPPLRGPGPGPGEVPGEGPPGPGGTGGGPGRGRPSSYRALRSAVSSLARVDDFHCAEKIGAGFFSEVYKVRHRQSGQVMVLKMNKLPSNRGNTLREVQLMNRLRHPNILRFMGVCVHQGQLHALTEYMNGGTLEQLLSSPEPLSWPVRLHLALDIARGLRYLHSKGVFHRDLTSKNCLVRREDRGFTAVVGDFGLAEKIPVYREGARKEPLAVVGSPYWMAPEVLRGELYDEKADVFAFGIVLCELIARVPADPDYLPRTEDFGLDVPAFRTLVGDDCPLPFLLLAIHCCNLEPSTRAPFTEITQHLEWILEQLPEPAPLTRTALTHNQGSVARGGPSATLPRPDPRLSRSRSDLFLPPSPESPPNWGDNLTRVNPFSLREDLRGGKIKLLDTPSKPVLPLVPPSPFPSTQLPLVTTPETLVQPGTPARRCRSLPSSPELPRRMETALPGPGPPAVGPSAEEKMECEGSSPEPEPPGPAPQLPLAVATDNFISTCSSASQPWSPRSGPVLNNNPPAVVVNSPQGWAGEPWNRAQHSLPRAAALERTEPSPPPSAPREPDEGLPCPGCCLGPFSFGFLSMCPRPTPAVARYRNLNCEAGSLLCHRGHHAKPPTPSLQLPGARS
T16 sequence (Q04759 whole entry): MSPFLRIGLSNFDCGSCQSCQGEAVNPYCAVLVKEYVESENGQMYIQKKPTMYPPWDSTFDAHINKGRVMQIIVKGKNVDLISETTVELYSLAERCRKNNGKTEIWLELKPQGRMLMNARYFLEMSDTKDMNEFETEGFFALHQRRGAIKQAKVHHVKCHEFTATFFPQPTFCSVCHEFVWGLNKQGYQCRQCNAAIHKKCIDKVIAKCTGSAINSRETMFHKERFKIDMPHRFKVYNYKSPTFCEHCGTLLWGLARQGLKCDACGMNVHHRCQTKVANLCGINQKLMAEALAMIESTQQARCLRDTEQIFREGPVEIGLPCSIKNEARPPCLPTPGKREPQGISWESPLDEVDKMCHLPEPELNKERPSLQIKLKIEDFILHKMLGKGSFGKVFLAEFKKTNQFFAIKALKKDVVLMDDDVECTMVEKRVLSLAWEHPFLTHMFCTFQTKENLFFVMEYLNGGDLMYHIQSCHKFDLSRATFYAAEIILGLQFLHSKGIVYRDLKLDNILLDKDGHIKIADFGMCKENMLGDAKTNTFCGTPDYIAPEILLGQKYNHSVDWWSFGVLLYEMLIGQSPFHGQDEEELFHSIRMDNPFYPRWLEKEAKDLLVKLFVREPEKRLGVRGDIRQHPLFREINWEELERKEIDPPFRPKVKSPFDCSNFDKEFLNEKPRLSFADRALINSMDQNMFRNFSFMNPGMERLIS
T2 sequence (Q8TD19 whole entry): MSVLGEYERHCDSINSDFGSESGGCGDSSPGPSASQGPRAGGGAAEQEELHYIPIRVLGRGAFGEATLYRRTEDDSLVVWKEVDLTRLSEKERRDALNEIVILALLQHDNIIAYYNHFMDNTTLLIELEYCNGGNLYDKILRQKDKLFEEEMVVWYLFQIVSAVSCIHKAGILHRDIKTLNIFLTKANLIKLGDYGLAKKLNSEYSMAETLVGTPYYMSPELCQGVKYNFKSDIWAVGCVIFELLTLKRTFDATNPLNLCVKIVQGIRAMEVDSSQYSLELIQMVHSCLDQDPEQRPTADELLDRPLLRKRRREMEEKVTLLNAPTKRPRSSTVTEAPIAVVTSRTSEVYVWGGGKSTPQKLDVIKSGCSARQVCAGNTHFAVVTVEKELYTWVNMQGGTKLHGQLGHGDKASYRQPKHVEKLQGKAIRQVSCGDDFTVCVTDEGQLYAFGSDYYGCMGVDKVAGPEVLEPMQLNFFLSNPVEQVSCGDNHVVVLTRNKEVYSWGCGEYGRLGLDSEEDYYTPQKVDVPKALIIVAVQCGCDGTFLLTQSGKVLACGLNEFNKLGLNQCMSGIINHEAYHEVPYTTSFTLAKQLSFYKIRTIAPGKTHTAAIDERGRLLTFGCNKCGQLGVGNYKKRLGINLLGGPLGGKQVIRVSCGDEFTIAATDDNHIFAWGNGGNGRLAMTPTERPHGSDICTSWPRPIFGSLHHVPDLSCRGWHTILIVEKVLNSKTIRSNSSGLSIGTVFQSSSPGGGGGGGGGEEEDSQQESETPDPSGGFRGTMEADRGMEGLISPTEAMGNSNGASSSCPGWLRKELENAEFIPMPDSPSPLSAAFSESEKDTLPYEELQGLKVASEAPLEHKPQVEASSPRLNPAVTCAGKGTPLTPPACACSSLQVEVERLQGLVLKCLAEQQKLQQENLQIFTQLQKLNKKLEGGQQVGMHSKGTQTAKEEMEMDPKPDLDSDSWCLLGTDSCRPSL
T9 sequence (Q8NEV4 whole entry): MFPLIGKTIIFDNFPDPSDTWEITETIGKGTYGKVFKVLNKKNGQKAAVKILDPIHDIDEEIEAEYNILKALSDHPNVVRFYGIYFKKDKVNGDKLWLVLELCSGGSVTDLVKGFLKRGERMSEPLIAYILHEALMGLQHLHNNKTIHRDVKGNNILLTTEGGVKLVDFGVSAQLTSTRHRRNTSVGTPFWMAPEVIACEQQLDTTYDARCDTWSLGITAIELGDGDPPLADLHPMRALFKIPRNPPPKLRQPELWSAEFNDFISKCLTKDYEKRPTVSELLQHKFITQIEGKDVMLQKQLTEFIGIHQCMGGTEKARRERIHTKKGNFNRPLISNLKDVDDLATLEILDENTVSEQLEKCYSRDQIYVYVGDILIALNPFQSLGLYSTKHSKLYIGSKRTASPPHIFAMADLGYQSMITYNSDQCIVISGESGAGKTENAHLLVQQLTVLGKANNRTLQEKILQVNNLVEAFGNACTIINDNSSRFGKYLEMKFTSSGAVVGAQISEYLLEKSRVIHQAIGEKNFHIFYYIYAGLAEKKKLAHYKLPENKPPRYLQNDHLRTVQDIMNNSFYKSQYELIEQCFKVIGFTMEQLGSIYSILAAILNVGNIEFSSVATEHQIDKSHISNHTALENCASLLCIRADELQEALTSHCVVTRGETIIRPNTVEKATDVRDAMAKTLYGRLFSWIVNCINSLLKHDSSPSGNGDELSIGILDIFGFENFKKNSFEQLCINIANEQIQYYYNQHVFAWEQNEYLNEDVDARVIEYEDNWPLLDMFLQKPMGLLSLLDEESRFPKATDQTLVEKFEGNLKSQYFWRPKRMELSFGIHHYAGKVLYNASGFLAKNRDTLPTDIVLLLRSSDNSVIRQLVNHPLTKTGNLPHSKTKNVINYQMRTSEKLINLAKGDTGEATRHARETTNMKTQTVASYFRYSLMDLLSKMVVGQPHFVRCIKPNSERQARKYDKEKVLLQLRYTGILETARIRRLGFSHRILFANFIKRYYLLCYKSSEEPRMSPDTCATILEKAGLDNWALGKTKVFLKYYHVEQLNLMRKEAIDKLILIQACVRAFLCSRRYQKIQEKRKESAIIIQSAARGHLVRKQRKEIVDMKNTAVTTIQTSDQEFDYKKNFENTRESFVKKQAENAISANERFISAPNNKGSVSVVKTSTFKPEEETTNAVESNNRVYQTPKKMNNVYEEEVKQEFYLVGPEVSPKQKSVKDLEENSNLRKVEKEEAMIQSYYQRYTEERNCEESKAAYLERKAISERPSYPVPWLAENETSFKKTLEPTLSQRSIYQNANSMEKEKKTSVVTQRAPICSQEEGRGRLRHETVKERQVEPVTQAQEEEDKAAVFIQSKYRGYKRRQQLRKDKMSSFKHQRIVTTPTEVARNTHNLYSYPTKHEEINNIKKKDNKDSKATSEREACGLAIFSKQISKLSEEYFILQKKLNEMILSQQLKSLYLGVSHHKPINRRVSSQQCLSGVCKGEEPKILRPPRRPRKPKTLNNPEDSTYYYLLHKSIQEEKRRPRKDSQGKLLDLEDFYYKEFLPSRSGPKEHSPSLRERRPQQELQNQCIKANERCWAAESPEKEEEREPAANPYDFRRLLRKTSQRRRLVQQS
T24 sequence (Q13153 whole entry): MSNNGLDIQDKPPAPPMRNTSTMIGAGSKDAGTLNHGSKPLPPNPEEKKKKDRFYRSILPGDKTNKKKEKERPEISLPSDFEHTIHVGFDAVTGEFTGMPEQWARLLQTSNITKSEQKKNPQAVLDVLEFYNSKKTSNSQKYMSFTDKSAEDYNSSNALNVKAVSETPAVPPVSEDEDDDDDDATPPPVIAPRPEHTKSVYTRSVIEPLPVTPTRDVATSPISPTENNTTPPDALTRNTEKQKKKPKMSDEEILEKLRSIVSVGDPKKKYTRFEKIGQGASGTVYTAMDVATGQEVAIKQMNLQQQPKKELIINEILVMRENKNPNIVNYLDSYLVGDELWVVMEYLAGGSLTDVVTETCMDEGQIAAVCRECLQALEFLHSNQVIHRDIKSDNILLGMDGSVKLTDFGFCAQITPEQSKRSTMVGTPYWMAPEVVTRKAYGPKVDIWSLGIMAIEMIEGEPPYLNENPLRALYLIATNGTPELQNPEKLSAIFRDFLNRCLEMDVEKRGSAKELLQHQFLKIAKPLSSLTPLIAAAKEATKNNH

Structure (SMILES): C#Cc1cccc(Nc2ncnc3cc(OC)c(OCCCN4CCOCC4)cc23)c1 [NRC-2694, N-(3-ethynylphenyl)-7-methoxy-6-[3-(4-morpholinyl)propoxy]-4-quinazolinamine]
- remaining binding at 10 µM [1]: 43%
- remaining binding at 10 µM [2]: 85%
- remaining binding at 10 µM [3]: 66%
- remaining binding at 10 µM [4]: 83%
- remaining binding at 10 µM [5]: 100%
- remaining binding at 10 µM [6]: 8.9%
- remaining binding at 10 µM [7]: 84%
- remaining binding at 10 µM [8]: 12%
- remaining binding at 10 µM [9]: 70%
- remaining binding at 10 µM [10]: 56%
- remaining binding at 10 µM [11]: 68%
- remaining binding at 10 µM [12]: 26%
- remaining binding at 10 µM [13]: 94%
- remaining binding at 10 µM [14]: 100%
- remaining binding at 10 µM [15]: 78%
- remaining binding at 10 µM [16]: 83%
- remaining binding at 10 µM [17]: 5.9%
- remaining binding at 10 µM [18]: 17%
- remaining binding at 10 µM [19]: 86%
- remaining binding at 10 µM [20]: 57%
- remaining binding at 10 µM [21]: 93%
- remaining binding at 10 µM [22]: 80%
- remaining binding at 10 µM [23]: 37%
- remaining binding at 10 µM [24]: 74%
- remaining binding at 10 µM [25]: 10%
- remaining binding at 10 µM [26]: 17%
- remaining binding at 10 µM [27]: 49%
- remaining binding at 10 µM [28]: 100%
- remaining binding at 10 µM [29]: 25%
- remaining binding at 10 µM [30]: 93%
